In patent US8076338B2, “Kinase modulators and methods of use” (Exelixis, Inc., priority 2004, dated 2011) one finds IC50 data, which are given here for 34 compounds.

Structures are written as SMILES.

One assay deals with p70S6K (Homo sapiens, UniProt P23443). The assay is described as follows: Luciferase-coupled chemiluminescence kinase assay (ATP consumption). The class given is biochemical. A digest of the protocol: (§1)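 Enzyme at 2.5-5 nM was preincubated 30 min at room temperature with compound in Tris pH 7.5, MgCl2, TX-100, DTT, then reacted with ATP for 3 h at ambient temperature. Remaining ATP was quantified by luciferase-luciferin chemiluminescence, with consumption kept at 25-60%; […].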
Sequence of p70S6K (P23443 whole entry): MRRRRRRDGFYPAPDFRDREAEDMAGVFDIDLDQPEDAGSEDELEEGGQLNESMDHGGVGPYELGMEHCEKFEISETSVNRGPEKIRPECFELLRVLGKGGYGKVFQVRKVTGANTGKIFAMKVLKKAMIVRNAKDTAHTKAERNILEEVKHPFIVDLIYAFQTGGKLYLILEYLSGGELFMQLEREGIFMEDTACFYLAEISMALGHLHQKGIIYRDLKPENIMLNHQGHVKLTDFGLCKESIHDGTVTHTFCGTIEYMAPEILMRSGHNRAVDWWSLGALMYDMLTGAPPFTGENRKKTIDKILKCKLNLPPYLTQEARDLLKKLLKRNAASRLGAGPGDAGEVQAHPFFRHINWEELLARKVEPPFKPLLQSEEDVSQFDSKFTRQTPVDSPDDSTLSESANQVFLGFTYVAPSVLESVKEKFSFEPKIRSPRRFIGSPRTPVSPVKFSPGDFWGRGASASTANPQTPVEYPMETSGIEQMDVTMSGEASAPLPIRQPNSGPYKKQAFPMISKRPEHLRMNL

In a further assay the target is AktK (Homo sapiens, UniProt P31749). Described as above. The note with it: read-out: AKT-1 IC50. Format: biochemical. In short, it runs like this: as §1
Sequence of AktK (P31749 whole entry): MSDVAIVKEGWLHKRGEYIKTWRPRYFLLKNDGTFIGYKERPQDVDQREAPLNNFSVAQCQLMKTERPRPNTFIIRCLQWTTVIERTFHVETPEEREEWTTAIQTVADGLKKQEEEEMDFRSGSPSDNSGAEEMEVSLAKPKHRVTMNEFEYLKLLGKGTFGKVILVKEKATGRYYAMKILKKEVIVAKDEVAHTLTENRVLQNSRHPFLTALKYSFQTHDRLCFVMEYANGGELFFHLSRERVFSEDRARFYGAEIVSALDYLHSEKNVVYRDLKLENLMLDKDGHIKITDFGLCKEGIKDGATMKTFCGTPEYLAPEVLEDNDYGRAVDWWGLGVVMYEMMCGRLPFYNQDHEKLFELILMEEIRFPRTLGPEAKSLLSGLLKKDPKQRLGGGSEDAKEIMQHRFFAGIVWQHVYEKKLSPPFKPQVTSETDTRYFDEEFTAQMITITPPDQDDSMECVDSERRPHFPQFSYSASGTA

A word on the IC50: it is the midpoint of a concentration-inhibition curve. As for `Fc1ccc(N2CCN(c3ncnc4[nH]ccc34)CC2)cc1` [Entry 312, 4-[4-(4-fluorophenyl)piperazin-1-yl]-7H-pyrrolo[2,3-d]pyrimidine], the figures for the IC50 on p70S6K and at AktK were 100 to 1000 nM and at least 10000 nM, respectively.

Take `Fc1ccccc1N1CCN(c2ncnc3[nH]ccc23)CC1` [Entry 313, 4-[4-(2-fluorophenyl)piperazin-1-yl]-7H-pyrrolo[2,3-d]pyrimidine]: the values for the IC50 against p70S6K and at AktK were 100 to 1000 nM and at least 10000 nM, respectively.

For `FC(F)(F)c1cccc(N2CCN(c3ncnc4[nH]cnc34)CC2)c1` [Entry 314, 6-{4-[3-(trifluoromethyl)phenyl]piperazin-1-yl}-9H-purine], the IC50 is 100 to 1000 nM on p70S6K and at least 10000 nM on AktK.

On to `Cc1ccccc1N1CCN(c2ncnc3[nH]cnc23)CC1` [Entry 315, 6-[4-(2-methylphenyl)piperazin-1-yl]-9H-purine], for which the IC50 on p70S6K was 100 to 1000 nM; on AktK it was at least 10000 nM.

In the case of `FC(F)(F)c1cccc(N2CCN(c3ncnc4[nH]ncc34)CC2)c1` [Entry 316, 4-{4-[3-(trifluoromethyl)phenyl]piperazin-1-yl}-1H-pyrazolo[3,4-d]pyrimidine], the IC50 is under 100 nM at p70S6K and at least 10000 nM on AktK.

Take `Cc1ccccc1N1CCN(c2ncnc3[nH]ncc23)CC1` [Entry 317, 4-[4-(2-methylphenyl)piperazin-1-yl]-1H-pyrazolo[3,4-d]pyrimidine]: the values for the IC50 at p70S6K and on AktK were 100 to 1000 nM and at least 10000 nM, respectively.

`Cc1n[nH]c2ncnc(N3CCN(c4cccc(Cl)c4)CC3)c12` [Entry 318, 4-[4-(3-chlorophenyl)piperazin-1-yl]-3-methyl-1H-pyrazolo[3,4-d]pyrimidine]: the IC50 is under 100 nM against p70S6K and at least 10000 nM at AktK.

As to `Cc1ccc(Cl)cc1N1CCN(c2ncnc3[nH]ncc23)CC1` [Entry 320, 4-[4-(5-chloro-2-methylphenyl)piperazin-1-yl]-1H-pyrazolo[3,4-d]pyrimidine], the results for the IC50 against p70S6K and at AktK were under 100 nM and 1000 to 10000 nM, respectively.

Consider `Cc1ccc(Cl)cc1N1CCN(c2ncnc3[nH]nc(C)c23)CC1` [Entry 321, 4-[4-(5-chloro-2-methylphenyl)piperazin-1-yl]-3-methyl-1H-pyrazolo[3,4-d]pyrimidine], for which the 50% inhibitory concentration (IC50) is under 100 nM on p70S6K and 1000 to 10000 nM at AktK.

Turning to `Cc1ccc(Cl)cc1N1CCN(c2nc(-c3ccccc3)nc3[nH]nc(C)c23)CC1` [Entry 322, 4-[4-(5-chloro-2-methylphenyl)piperazin-1-yl]-3-methyl-6-phenyl-1H-pyrazolo[3,4-d]pyrimidine], the IC50 against p70S6K and on AktK was 1000 to 10000 nM in each case.

On to `CCc1n[nH]c2ncnc(N3CCN(c4cc(Cl)ccc4C)CC3)c12` [Entry 323, 4-[4-(5-chloro-2-methylphenyl)piperazin-1-yl]-3-ethyl-1H-pyrazolo[3,4-d]pyrimidine], for which the IC50 was under 100 nM on p70S6K and 1000 to 10000 nM on AktK.

Consider `Cc1nc(N2CCN(c3cc(Cl)ccc3C)CC2)c2cn[nH]c2n1` [Entry 324, 4-[4-(5-chloro-2-methylphenyl)piperazin-1-yl]-6-methyl-1H-pyrazolo[3,4-d]pyrimidine], for which the IC50 against p70S6K and at AktK was 1000 to 10000 nM throughout.

`CCc1nc(N2CCN(c3cc(Cl)ccc3C)CC2)c2cn[nH]c2n1` [Entry 325, 4-[4-(5-chloro-2-methylphenyl)piperazin-1-yl]-6-ethyl-1H-pyrazolo[3,4-d]pyrimidine]: the IC50 on p70S6K and at AktK was 1000 to 10000 nM each time.

On to `Cc1ccc(Cl)cc1N1CCN(c2nc(C(C)C)nc3[nH]ncc23)CC1` [Entry 326, 4-[4-(5-chloro-2-methylphenyl)piperazin-1-yl]-6-(1-methylethyl)-1H-pyrazolo[3,4-d]pyrimidine], for which the IC50 on p70S6K and on AktK was 1000 to 10000 nM throughout.

Turning to `Cc1ccc(Cl)cc1N1CCN(c2ncnc3[nH]nc(-c4ccccc4)c23)CC1` [Entry 327, 4-[4-(5-chloro-2-methylphenyl)piperazin-1-yl]-3-phenyl-1H-pyrazolo[3,4-d]pyrimidine], the IC50 against p70S6K is under 100 nM; on AktK, 1000 to 10000 nM.

With `COCCOCc1n[nH]c2ncnc(N3CCN(c4cc(Cl)ccc4C)CC3)c12` [Entry 328, 4-[4-(5-chloro-2-methylphenyl)piperazin-1-yl]-3-({[2-(methyloxy)ethyl]oxy}methyl)-1H-pyrazolo[3,4-d]pyrimidine], the IC50 on p70S6K was under 100 nM; on AktK, 1000 to 10000 nM.

`Cc1ccc(Cl)cc1N1CCN(c2ncnc3[nH]nc(Br)c23)CC1` [Entry 329, 3-bromo-4-[4-(5-chloro-2-methylphenyl)piperazin-1-yl]-1H-pyrazolo[3,4-d]pyrimidine]: the IC50 on p70S6K is under 100 nM; on AktK it was 100 to 1000 nM.

As for `CCCc1n[nH]c2ncnc(N3CCN(c4cc(Cl)ccc4C)CC3)c12` [Entry 330, 4-[4-(5-chloro-2-methylphenyl)piperazin-1-yl]-3-propyl-1H-pyrazolo[3,4-d]pyrimidine], the IC50 was under 100 nM against p70S6K and 1000 to 10000 nM at AktK.

On to `Cc1ccc(Cl)cc1N1CCN(c2ncnc3[nH]nc(-c4ccc(O)cc4)c23)CC1` [Entry 331, 4-{4-[4-(5-chloro-2-methylphenyl)piperazin-1-yl]-1H-pyrazolo[3,4-d]pyrimidin-3-yl}phenol], for which the IC50 against p70S6K is under 100 nM; at AktK it was 1000 to 10000 nM.

Consider `Cc1ccc(Cl)cc1N1CCN(c2ncnc3[nH]nc(Nc4ccccc4)c23)CC1` [Entry 332, 4-[4-(5-chloro-2-methylphenyl)piperazin-1-yl]-N-phenyl-1H-pyrazolo[3,4-d]pyrimidin-3-amine], for which the IC50 on p70S6K and on AktK was 1000 to 10000 nM in each case.

Regarding `CCc1n[nH]c2ncnc(N3CCN(c4cccc(Cl)c4)CC3)c12` [Entry 333, 4-[4-(3-chlorophenyl)piperazin-1-yl]-3-ethyl-1H-pyrazolo[3,4-d]pyrimidine], the values for the IC50 against p70S6K and on AktK were under 100 nM and 1000 to 10000 nM, respectively.

In the case of `CCc1n[nH]c2ncnc(N3CCN(c4cc(Cl)ccc4OC)CC3)c12` [Entry 334, 4-{4-[5-chloro-2-(methyloxy)phenyl]piperazin-1-yl}-3-ethyl-1H-pyrazolo[3,4-d]pyrimidine], the results for the IC50 against p70S6K and on AktK were under 100 nM and 1000 to 10000 nM, respectively.

On to `Cc1ccc(Cl)cc1N1CCN(c2ncnc3[nH]nc(-c4cccc(O)c4)c23)CC1` [Entry 335, 3-{4-[4-(5-chloro-2-methylphenyl)piperazin-1-yl]-1H-pyrazolo[3,4-d]pyrimidin-3-yl}phenol], for which the results for the IC50 on p70S6K and on AktK were 100 to 1000 nM and 1000 to 10000 nM, respectively.

Turning to `Cc1ccc(Cl)cc1N1CCN(c2ncnc3[nH]nc(-c4cccc(OCc5ccccc5)c4)c23)CC1` [Entry 336, 4-[4-(5-chloro-2-methylphenyl)piperazin-1-yl]-3-{3-[(phenylmethyl)oxy]phenyl}-1H-pyrazolo[3,4-d]pyrimidine], the IC50 on p70S6K and at AktK was 1000 to 10000 nM in each case.

For `Cc1ccc(Cl)cc1N1CCN(c2ncnc3[nH]nc(-c4ccc5c(c4)OCO5)c23)CC1` [Entry 337, 3-(1,3-benzodioxol-5-yl)-4-[4-(5-chloro-2-methyl-phenyl)piperazin-1-yl]-1H-pyrazolo[3,4-d]pyrimidine], the IC50 against p70S6K was 100 to 1000 nM; on AktK, 1000 to 10000 nM.

Regarding `Cc1ccc(Cl)cc1N1CCN(c2ncnc3[nH]nc(-c4cccs4)c23)CC1` [Entry 338, 4-[4-(5-chloro-2-methylphenyl)piperazin-1-yl]-3-(2-thienyl)-1H-pyrazolo[3,4-d]pyrimidine], the IC50 on p70S6K is under 100 nM; at AktK, 1000 to 10000 nM.

Regarding `Cc1ccc(Cl)cc1N1CCN(c2ncnc3[nH]nc(-c4cccc(N)c4)c23)CC1` [Entry 339, 3-{4-[4-(5-chloro-2-methylphenyl)piperazin-1-yl]-1H-pyrazolo[3,4-d]pyrimidin-3-yl}aniline], the IC50 at p70S6K fell in the range of 100 to 1000 nM; at AktK, 1000 to 10000 nM.

With `Cc1ccc(Cl)cc1N1CCN(c2ncnc3[nH]nc(-c4cccc(C(=O)O)c4)c23)CC1` [Entry 340, 3-{4-[4-(5-chloro-2-methylphenyl)piperazin-1-yl]-d1H-pyrazolo[3,4-]pyrimidin-3-yl}benzoic acid], the IC50 at p70S6K and at AktK was 1000 to 10000 nM each time.

Turning to `Cc1ccc(-c2n[nH]c3ncnc(N4CCN(c5cc(Cl)ccc5C)CC4)c23)cc1` [Entry 341, 4-[4-(5-chloro-2-methylphenyl)piperazin-1-yl]-3-(4-methylphenyl)-1H-pyrazolo[3,4-d]pyrimidine], the IC50 at p70S6K and at AktK was 1000 to 10000 nM throughout.

As to `CC(=O)Nc1ccc(-c2n[nH]c3ncnc(N4CCN(c5cc(Cl)ccc5C)CC4)c23)cc1` [Entry 342, N-(4-{4-[4-(5-chloro-2-methylphenyl)piperazin-1-yl]-1H-pyrazolo[3,4-d]pyrimidin-3-yl}phenyl)acetamide], the IC50 on p70S6K lay in the range of 100 to 1000 nM; at AktK it was 1000 to 10000 nM.

As to `CCc1n[nH]c2ncnc(N3CCCN(c4cccc(Cl)c4)CC3)c12` [Entry 343, 4-[4-(3-chlorophenyl)-1,4-diazepan-1-yl]-3-ethyl-1H-pyrazolo[3,4-d]pyrimidine], the IC50 is 100 to 1000 nM against p70S6K and at least 10000 nM at AktK.

Consider `CCc1n[nH]c2ncnc(N3CC4CC3CN4c3cccc(Cl)c3)c12` (centres unmarked) [Entry 344, 4-[5-(3-chlorophenyl)-2,5-diazabicyclo[2.2.1]hept-2-yl]-3-ethyl-1H-pyrazolo[3,4-d]pyrimidine], for which the IC50 is under 100 nM against p70S6K and 1000 to 10000 nM at AktK.

As for `CCc1n[nH]c2ncnc(N3CCN(c4ccc(OCCN5CCOCC5)c(Cl)c4)CC3)c12` [Entry 345, 4-(4-{3-chloro-4-[(2-morpholin-4-ylethyl)oxy]phe-nyl}piperazin-1-yl)-3-ethyl-1H-pyrazolo[3,4-d]pyrimidine], the IC50 against p70S6K is 1000 to 10000 nM; at AktK it was at least 10000 nM.

`CCc1n[nH]c2ncnc(N3CCN(c4cccc(Cl)c4)C(C(=O)OC)C3)c12` (centres unmarked) [Entry 346, methyl 1-(3-chlorophenyl)-4-(3-ethyl-1H-pyrazolo[3,4-d]pyrimidin-4-yl)piperazine-2-carboxylate]: the concentration for half-maximal inhibition (IC50) at p70S6K is 1000 to 10000 nM; on AktK it was at least 10000 nM.
